Data published in US7943619B2, “Isoxazolo-pyridazine derivatives” (priority 2007, dated 2011).

Target: human GABA A receptor α5β3γ2 (α5 subunit) (Homo sapiens, UniProt P18507+P31644)
Assay: biochemical
Format: binding
Details: competition for [3H]flumazenil binding, HEK293 cells transiently expressing human receptors; means of two determinations; read-out: hKi
Protocol: The affinity of compounds at GABA A receptor subtypes was measured by competition for [3H]flumazenil (85 Ci/mmol; Roche) binding to HEK293 cells expressing rat (stably transfected) or human (transiently transfected) receptors of composition α1β3γ2, α2β3γ2, α3β3γ2 and α5β3γ2.
Cell pellets were suspended in Krebs-tris buffer (4.8 mM KCl, 1.2 mM CaCl2, 1.2 mM MgCl2, 120 mM NaCl, 15 mM Tris; pH 7.5; binding assay buffer), homogenized by polytron for ca. 20 sec on ice and centrifuged for 60 min at 4° C. (50000 g; Sorvall, rotor: SM24=20000 rpm). The cell pellets were resuspended in Krebs-tris buffer and homogenized by polytron for ca. 15 sec on ice. Protein was measured (Bradford method, Bio-Rad) and aliquots of 1 mL were prepared and stored at −80° C.
Assays were incubated to equilibrium for 1 hour at 4° C. and harvested onto GF/C uni-filters (Packard) by filtration using a Packard harvester and washing with ice-cold wash buffer (50 mM Tris; pH 7.5). After drying, filter-retained radioactivity was detected by liquid scintillation counting. Ki values were calculated using Excel-Fit (Microsoft) and are the means of two determinations.

Chain of human GABA A receptor α5β3γ2 (α5 subunit) (P31644 32-462): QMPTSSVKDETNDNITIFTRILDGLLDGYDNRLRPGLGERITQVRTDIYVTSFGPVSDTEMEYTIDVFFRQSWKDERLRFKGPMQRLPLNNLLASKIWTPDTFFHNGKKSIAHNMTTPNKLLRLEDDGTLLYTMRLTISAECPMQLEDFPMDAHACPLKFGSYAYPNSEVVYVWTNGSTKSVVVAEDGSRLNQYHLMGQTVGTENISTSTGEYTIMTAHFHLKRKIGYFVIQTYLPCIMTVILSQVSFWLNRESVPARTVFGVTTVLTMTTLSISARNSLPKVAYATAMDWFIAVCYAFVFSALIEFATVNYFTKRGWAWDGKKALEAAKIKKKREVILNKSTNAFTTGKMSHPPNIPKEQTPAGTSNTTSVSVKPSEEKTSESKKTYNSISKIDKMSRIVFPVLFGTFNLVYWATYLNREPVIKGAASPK
Chain of human GABA A receptor α5β3γ2 (α5 subunit) (P28472 26-473 partner): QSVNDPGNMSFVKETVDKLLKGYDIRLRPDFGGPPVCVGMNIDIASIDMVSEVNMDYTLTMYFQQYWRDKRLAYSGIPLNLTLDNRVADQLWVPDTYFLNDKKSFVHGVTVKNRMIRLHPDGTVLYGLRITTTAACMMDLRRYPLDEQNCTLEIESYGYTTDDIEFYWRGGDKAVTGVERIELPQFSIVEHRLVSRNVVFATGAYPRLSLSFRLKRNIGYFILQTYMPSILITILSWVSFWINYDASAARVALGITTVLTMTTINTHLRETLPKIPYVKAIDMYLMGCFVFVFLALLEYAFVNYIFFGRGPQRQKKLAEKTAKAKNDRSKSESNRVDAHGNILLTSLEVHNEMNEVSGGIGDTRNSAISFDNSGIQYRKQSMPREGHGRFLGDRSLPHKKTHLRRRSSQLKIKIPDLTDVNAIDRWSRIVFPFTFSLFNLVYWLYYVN
Chain of human GABA A receptor α5β3γ2 (α5 subunit) (P18507 40-475): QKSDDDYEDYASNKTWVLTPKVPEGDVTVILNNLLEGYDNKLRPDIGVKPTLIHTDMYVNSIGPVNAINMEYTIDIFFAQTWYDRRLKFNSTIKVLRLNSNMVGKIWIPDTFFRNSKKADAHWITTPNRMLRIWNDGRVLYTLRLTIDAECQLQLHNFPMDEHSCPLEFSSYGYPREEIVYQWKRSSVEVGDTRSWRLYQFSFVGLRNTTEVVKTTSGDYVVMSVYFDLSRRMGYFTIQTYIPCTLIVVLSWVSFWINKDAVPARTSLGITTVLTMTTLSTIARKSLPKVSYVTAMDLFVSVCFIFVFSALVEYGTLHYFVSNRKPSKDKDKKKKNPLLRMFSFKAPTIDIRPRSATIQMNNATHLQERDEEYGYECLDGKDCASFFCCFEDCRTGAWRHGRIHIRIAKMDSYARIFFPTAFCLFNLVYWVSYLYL

| Ki [nM] | Compound |
| --- | --- |
| 4.1 | CNC(=O)c1ccc(OCc2c(-c3cccc(F)c3)noc2C)nn1 [Example 50, 6-[3-(3-Fluoro-phenyl)-5-methyl-isoxazol-4-ylmethoxy]-pyridazine-3-carboxylic acid methylamide] |
| 3.6 | Cc1cc(OCc2c(-c3ccccc3)noc2C)nnc1C(=O)NC(C)C [Example 46, 4-Methyl-6-(5-methyl-3-phenyl-isoxazol-4-ylmethoxy)-pyridazine-3-carboxylic acid isopropylamide] |
